Assay results taken from patent US20120157453A1, “RAF INHIBITOR COMPOUNDS AND METHODS OF USE THEREOF” (GENENTECH, INC., priority 2009, published 2012).
Read-outs that look alike come from different tables or passages of the source.

Columns and labels:
[1] = biological target: T1, V600E full-length B-Raf (Homo sapiens, UniProt P15056, V600E); assay: B-Raf IC50 assay (incorporation of 33P phosphate into FSBA-modified MEK); assay type: biochemical
T1 construct: 1 μM FSBA-MEK and 20 nM V600E full-length B-Raf; made in house; host or cells: Sf9 insect cells (baculovirus)
T1 sequence (P15056 whole entry V600E): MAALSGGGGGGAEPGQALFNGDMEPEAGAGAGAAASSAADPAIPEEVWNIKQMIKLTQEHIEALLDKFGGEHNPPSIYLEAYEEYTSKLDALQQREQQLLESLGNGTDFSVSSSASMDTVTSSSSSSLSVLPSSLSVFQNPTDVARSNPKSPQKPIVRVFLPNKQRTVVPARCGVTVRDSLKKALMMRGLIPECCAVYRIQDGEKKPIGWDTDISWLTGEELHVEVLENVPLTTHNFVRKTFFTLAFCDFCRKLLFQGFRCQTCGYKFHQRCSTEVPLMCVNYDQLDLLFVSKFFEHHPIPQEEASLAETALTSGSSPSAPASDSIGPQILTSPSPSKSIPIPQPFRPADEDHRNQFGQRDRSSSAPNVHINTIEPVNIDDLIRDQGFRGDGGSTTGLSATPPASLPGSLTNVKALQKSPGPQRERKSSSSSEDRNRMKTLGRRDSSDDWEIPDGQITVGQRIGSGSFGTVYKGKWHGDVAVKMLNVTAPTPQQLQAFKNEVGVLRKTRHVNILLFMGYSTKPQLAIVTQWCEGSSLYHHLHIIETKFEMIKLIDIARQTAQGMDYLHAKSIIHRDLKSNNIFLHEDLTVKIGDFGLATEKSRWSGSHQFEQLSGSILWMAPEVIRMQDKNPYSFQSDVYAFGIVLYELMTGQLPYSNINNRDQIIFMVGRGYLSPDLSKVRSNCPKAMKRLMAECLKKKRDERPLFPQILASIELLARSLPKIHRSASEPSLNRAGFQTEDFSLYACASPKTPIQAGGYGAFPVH
Text: Determining the activity of Raf in the sample is possible by a number of direct and indirect detection methods (US 2004/0082014). Activity of human recombinant B-Raf protein may be assessed in vitro by assay of the incorporation of radio labeled phosphate to recombinant MAP kinase (MEK), a known physiologic substrate of B-Raf, according to US 2004/0127496 and WO 03/022840. The activity/inhibition of V600E full-length B-Raf was estimated by measuring the incorporation of radio labeled phosphate from [γ-^33P]ATP into FSBA-modified wild-type MEK (see Example A).
Activity of human recombinant B-Raf protein may be assessed in vitro by assay of the incorporation of radio labeled phosphate to recombinant MAP kinase (MEK), a known physiologic substrate of B-Raf, according to US 2004/0127496 and WO 03/022840. Catalytically active human recombinant B-Raf protein is obtained by purification from sf9 insect cells infected with a human B-Raf recombinant baculovirus expression vector.
The activity/inhibition of V600E full-length B-Raf was estimated by measuring the incorporation of radio labeled phosphate from [γ-^33P]ATP into FSBA-modified wild-type MEK. The 30-μL assay mixtures contained 25 mM Na Pipes, pH 7.2, 100 mM KCl, 10 mM MgCl2, 5 mM β-glycerophosphate, 100 μM Na Vanadate, 4 μM ATP, 500 nCi [γ-^33P]ATP, 1 μM FSBA-MEK and 20 nM V600E full-length B-Raf. Incubations were carried out at 22° C. in a Costar 3365 plate (Corning). Prior to the assay, the B-Raf and FSBA-MEK were preincubated together in assay buffer at 1.5× (20 μL of 30 nM and 1.5 μM, respectively) for 15 minutes, and the assay was initiated by the addition of 10 μL of 10 μM ATP. Following the 60-minute incubation, the assay mixtures were quenched by the addition of 100 μL of 25% TCA, the plate was mixed on a rotary shaker for 1 minute, and the product was captured on a Perkin-Elmer GF/B filter plate using a Tomtec Mach III Harvester. After sealing the bottom of the plate, 35 μL of Bio-Safe II (Research Products International) scintillation cocktail were added to each well and the plate was top-sealed and counted in a Topcount NXT (Packard).

[2] = test system: basal ERK1/2 phosphorylation in Malme-3M cells; assay: Cellular ERK 1/2 phosphorylation assay; assay type: cell-based; conditions: Homo sapiens, 1 h, pERK normalized to total ERK
Method: Inhibition of basal ERK1/2 phosphorylation was determined by the following in vitro […], which comprises incubating cells with a compound of Formula II for 1 hour and quantifying the fluorescent pERK signal on fixed cells and normalizing to total ERK signal.
Materials and Methods: Malme-3M cells were obtained from ATCC and grown in RPMI-1640 supplemented with 10% fetal bovine serum. Cells were plated in 96-well plates at 24,000 cells/well and allowed to attach for 16-20 hours at 37° C., 5% CO2. The media was removed, and DMSO-diluted compounds were added in RPMI-1640 at a final concentration of 1% DMSO. The cells were incubated with the compounds for 1 hour at 37° C., 5% CO2. The cells were washed with PBS and fixed in 3.7% formaldehyde in PBS for 15 minutes. This was followed by washing in PBS/0.05% Tween20 and permeabilizing in −20° C. 100% MeOH for 15 minutes. Cells were washed in PBS/0.05% Tween20 then blocked in Odyssey blocking buffer (LI-COR Biosciences) for 1 hour. Antibodies to phosphorylated ERK (1:400, Cell Signaling #9106, monoclonal) and total ERK (1:400, Santa Cruz Biotechnology #sc-94, polyclonal) were added to the cells and incubated 16-20 hours at 4° C. After washing with PBS/0.05% Tween20, the cells were incubated with fluorescently-labeled secondary antibodies (1:1000 goat anti-rabbit IgG-IRDye800, Rockland and 1:500 goat anti-mouse IgG-Alexa Fluor 680, Molecular Probes) for an additional hour. Cells were then washed and analyzed for fluorescence at both wavelengths using the Odyssey Infrared Imaging System (LI-COR Biosciences). Phosphorylated ERK signal was normalized to total ERK signal.

[3] = B-Raf V600E, bound less than 1 μM, read-out: IC50
[4] = Example A assay, 4 μM ATP, 20 nM enzyme, 60-minute incubation, read-out: BRAF V600E IC50

Row | SMILES | IC50 [1, 3] | IC50 [1, 4] | IC50 ([2]; bound less than 500 nM) | IC50 ([2]; bound less than 1 μM) | IC50 [2] | IC50 [1]
1 | CCCS(=O)(=O)Nc1ccc(F)c(NC(=O)Nc2ncnc3[nH]c(=S)[nH]c23)c1F [Example 23, Propane-1-sulfonic acid {2,4-difluoro-3-[3-(8-thioxo-8,9-dihydro-7H-purin-6-yl)-ureido]-phenyl}-amide] | < 1000 nM | 29.2 nM |  |  |  | 
2 | CCCS(=O)(=O)Nc1ccc(F)c(NC(=O)Nc2ncnc3[nH]nc(OCC)c23)c1F [Example 9, N-(3-(3-(3-Ethoxy-1H-pyrazolo[3,4-d]pyrimidin-4-yl)ureido)-2,4-difluorophenyl)propane-1-sulfonamide] | < 1000 nM | 0.9 nM | < 500 nM | < 1000 nM |  | 
3 | CCCS(=O)(=O)Nc1ccc(F)c(NC(=O)Nc2ncnc3sc(C)c(C)c23)c1F [Example 20, Propane-1-sulfonic acid {3-[3-(5,6-dimethyl-thieno[2,3-d]pyrimidin-4-yl)-ureido]-2,4-difluoro-phenyl}-amide] | < 1000 nM | 28.2 nM |  | < 1000 nM |  | 
4 | CCCS(=O)(=O)Nc1ccc(F)c(NC(=O)Nc2ncnc3[nH]nnc23)c1F [Example 14, Propane-1-sulfonic acid {2,4-difluoro-3-[3-(3H-[1,2,3]triazolo[4,5-d]pyrimidin-7-yl)-ureido]-phenyl}-amide] |  | 1960 nM |  |  |  | 
5 | CCCS(=O)(=O)Nc1ccc(F)c(NC(=O)Nc2ncnc3[nH]ccc23)c1F [Example 12, Propane-1-sulfonic acid {2,4-difluoro-3-[3-(7H-pyrrolo[2,3-d]pyrimidin-4-yl)-ureido]-phenyl}-amide] | < 1000 nM | 56.2 nM | < 500 nM | < 1000 nM |  | 
6 | CCCS(=O)(=O)Nc1ccc(Cl)c(NC(=O)Nc2ncnc3sccc23)c1F [Example 22, Propane-1-sulfonic acid [4-chloro-2-fluoro-3-(3-thieno[2,3-d]pyrimidin-4-yl-ureido)-phenyl]-amide] | < 1000 nM | 18.8 nM | < 500 nM | < 1000 nM |  | 
7 | CCCS(=O)(=O)Nc1ccc(F)c(NC(=O)N(C)c2ncnc3[nH]ccc23)c1F [Example 6, Propane-1-sulfonic acid {2,4-difluoro-3-[3-methyl-3-(7H-pyrrolo[2,3-d]pyrimidin-4-yl)-ureido]-phenyl}-amide] | < 1000 nM | 57 nM |  |  |  | 
8 | CCCS(=O)(=O)Nc1ccc(F)c(NC(=O)Nc2ncnc3[nH]nc(OCCCO)c23)c1F [Example 15, Propane-1-sulfonic acid {2,4-difluoro-3-{3-[3-(3-hydroxy-propoxy)-1H-pyrazolo[3,4-d]pyrimidin-4-yl]-ureido}-phenyl)-amide] | < 1000 nM | 428 nM |  |  |  | 
9 | CCCS(=O)(=O)Nc1ccc(F)c(NC(=O)Nc2ncnc3sc4c(c23)CCC4)c1F [Example 19, Propane-1-sulfonic acid {3-[3-(6,7-dihydro-5H-cyclopenta[4,5]thieno[2,3-d]pyrimidin-4-yl)-ureido]-2,4-difluoro-phenyl}-amide] | < 1000 nM | 25.2 nM | < 500 nM | < 1000 nM | 176 nM | 
10 | CCS(=O)(=O)Nc1ccc(Cl)c(NC(=O)Nc2ncnc3[nH]nc(OC)c23)c1F [Example 4, Ethanesulfonic acid {4-chloro-2-fluoro-3-[3-(3-methoxy-1H-pyrazolo[3,4-d]pyrimidin-4-yl)-ureido]-phenyl}-amide] | < 1000 nM | 1.9 nM | < 500 nM | < 1000 nM |  | 
11 | CCCS(=O)(=O)Nc1ccc(Cl)c(NC(=O)Nc2ncnc3[nH]nc(OC)c23)c1F [Example 16, Propane-1-sulfonic acid {4-chloro-2-fluoro-3-[3-(3-methoxy-1H-pyrazolo[3,4-d]pyrimidin-4-yl)-ureido]-phenyl}-amide] | < 1000 nM | 0.6 nM | < 500 nM | < 1000 nM |  | 
12 | CCCS(=O)(=O)Nc1ccc(F)c(NC(=O)Nc2ncnc3[nH]ncc23)c1F [Example 11, Propane-1-sulfonic acid {2,4-difluoro-3-[3-(1H-pyrazolo[3,4-d]pyrimidin-4-yl)-ureido]-phenyl}-amide] | < 1000 nM |  | < 500 nM | < 1000 nM |  | 5.5 nM
13 | CCCS(=O)(=O)Nc1ccc(F)c(NC(=O)Nc2ncnc3[nH]nc(OC)c23)c1OC [Example 8, Propane-1-sulfonic acid {4-fluoro-2-methoxy-3-[3-(3-methoxy-1H-pyrazolo[3,4-d]pyrimidin-4-yl)-ureido]-phenyl}-amide] | < 1000 nM | 192 nM |  | < 1000 nM |  | 
14 | CCCS(=O)(=O)Nc1ccc(F)c(NC(=O)Nc2ncnc3[nH]nc(I)c23)c1F [Example 7, Propane-1-sulfonic acid {2,4-difluoro-3-[3-(3-iodo-1H-pyrazolo[3,4-d]pyrimidin-4-yl)-ureido]-phenyl}-amide] | < 1000 nM | 3.8 nM |  | < 1000 nM |  | 
15 | CCCS(=O)(=O)Nc1ccc(Cl)c(NC(=O)Nc2ncnc3oc(C)c(C)c23)c1F [Example 21, Propane-1-sulfonic acid {4-chloro-3-[3-(5,6-dimethyl-furo[2,3-d]pyrimidin-4-yl)-ureido]-2-fluoro-phenyl}-amide] | < 1000 nM | 90.8 nM |  | < 1000 nM | 522 nM | 
16 | CCCS(=O)(=O)Nc1ccc(F)c(NC(=O)Nc2ncnc3sccc23)c1F [Example 17, Propane-1-sulfonic acid [2,4-difluoro-3-(3-thieno[2,3-d]pyrimidin-4-yl-ureido)-phenyl]-amide] | < 1000 nM | 97.9 nM | < 500 nM | < 1000 nM |  | 
17 | CCCS(=O)(=O)Nc1ccc(F)c(NC(=O)Nc2ncnc3[nH]nc(OC)c23)c1F [Example 10, Propane-1-sulfonic acid {2,4-difluoro-3-[3-(3-methoxy-1H-pyrazolo[3,4-d]pyrimidin-4-yl)-ureido]-phenyl}-amide] | < 1000 nM | 1.4 nM | < 500 nM | < 1000 nM |  | 
18 | CCCS(=O)(=O)Nc1ccc(F)c(NC(=O)Nc2ncnc3[nH]cnc23)c1F [Example 13, Propane-1-sulfonic acid {2,4-difluoro-3-[3-(9H-purin-6-yl)-ureido]-phenyl}-amide] | < 1000 nM | 4.7 nM | < 500 nM | < 1000 nM |  | 
19 | CCCS(=O)(=O)Nc1ccc(F)c(NC(=O)Nc2ncnc3[nH]nc(OC)c23)c1Cl [Example 2, Propane-1-sulfonic acid {2-chloro-4-fluoro-3-[3-(3-methoxy-1H-pyrazolo[3,4-d]pyrimidin-4-yl)-ureido]-phenyl}-amide] | < 1000 nM | 1.3 nM | < 500 nM | < 1000 nM |  | 
20 | CCCS(=O)(=O)Nc1ccc(F)c(NC(=O)Nc2ncnc3oc(C)c(C)c23)c1F [Example 18, Propane-1-sulfonic acid {3-[3-(5,6-dimethyl-furo[2,3-d]pyrimidin-4-yl)-ureido]-2,4-difluoro-phenyl}-amide] | < 1000 nM | 431 nM |  |  |  | 
